Test results from article PMC1373645, “Lactate production yield from engineered yeasts is dependent from the host background, the lactate dehydrogenase source and the lactate export” (Microbial Cell Factories, 2006).

Target: T1, bovine Ldh-A (BtLDH) (Bos taurus, UniProt P19858)
T1 construct: gene LDHA; full length, untagged, expressed in S. cerevisiae GRF18U; crude cell extract; homotetramer
Assay: LDH activity of crude yeast extract with added lactate (Sigma kit DG1340-UV)
Format: biochemical
Conditions: read-out: % inhibition at 10 g/l

inhibition at 10000 µg/mL: ~40%
SMILES: C[C@H](O)C(=O)O [lactate]
